Results reported in ChEMBL document CHEMBL4699440, “Comprehensive review on the anti-bacterial activity of 1,2,3-triazole hybrids” (Eur J Med Chem, 2019).
≈ marks a conversion by molar mass, not a printed value.

Experiments:
[1] = test system: Trichophyton mentagrophytes; test: Antifungal activity against Trichophyton mentagrophytes incubated for 3 to 4 days by serial plate dilution method; assay type: functional; conditions: time day 3-4
Aspergillus fumigatus = test: Antifungal activity against Aspergillus fumigatus NCIM 902 incubated for 3 to 4 days by serial plate dilution method; assay type: functional; conditions: time day 3-4
Escherichia coli = test: Antibacterial activity against Escherichia coli ATCC 25922 incubated for 16 to 18 hrs by serial plate dilution method; assay type: functional; conditions: time hrs 16-18
Staphylococcus aureus [2] = test: Antibacterial activity against methicillin-resistant Staphylococcus aureus ATCC 25923 incubated for 16 to 18 hrs by serial plate dilution method; assay type: functional; conditions: time hrs 16-18
Aspergillus flavus = test: Antifungal activity against Aspergillus flavus NCIM 524 incubated for 3 to 4 days by serial plate dilution method; assay type: functional; conditions: time day 3-4
Talaromyces marneffei = test: Antifungal activity against Penicillium marneffei incubated for 3 to 4 days by serial plate dilution method; assay type: functional; conditions: time day 3-4
Klebsiella pneumoniae = test: Antibacterial activity against Klebsiella pneumoniae incubated for 16 to 18 hrs by serial plate dilution method; assay type: functional; conditions: time hrs 16-18
Pseudomonas aeruginosa = test: Antibacterial activity against Pseudomonas aeruginosa ATCC 27853 incubated for 16 to 18 hrs by serial plate dilution method; assay type: functional; conditions: time hrs 16-18
KB = test: Cytotoxicity against human KB cells; assay type: cell-based; conditions: Homo sapiens, KB
Staphylococcus aureus [3] = test: Antibacterial activity against Staphylococcus aureus; assay type: functional
Bacillus cereus = test: Antibacterial activity against Bacillus cereus; assay type: functional

**Q.** Which results are given for COc1ccc(/C=N/NC(=O)c2nnn(-c3cc(C(F)(F)F)nc4c(C(F)(F)F)cccc34)c2C)c([N+](=O)[O-])c1OC?
**A.** MIC [1]: 6.25 µg/mL (≈ 10.5 µM); MIC (Aspergillus fumigatus): 6.25 µg/mL (≈ 10.5 µM); MIC (Escherichia coli): 6.25 µg/mL (≈ 10.5 µM); MIC (Staphylococcus aureus [2]): 6.25 µg/mL (≈ 10.5 µM); MIC (Aspergillus flavus): 6.25 µg/mL (≈ 10.5 µM); MIC (Talaromyces marneffei): 6.25 µg/mL (≈ 10.5 µM); MIC (Klebsiella pneumoniae): 6.25 µg/mL (≈ 10.5 µM); MIC (Pseudomonas aeruginosa): 6.25 µg/mL (≈ 10.5 µM)

**Q.** Cc1c(C(=O)N/N=C/c2ccc(-c3ccccc3)cc2)nnn1-c1cc(C(F)(F)F)nc2c(C(F)(F)F)cccc12 was tested. Which MIC [1] did it give?
**A.** 6.25 µg/mL (≈ 11 µM)

**Q.** What about the MIC (Aspergillus fumigatus) of the same molecule?
**A.** 6.25 µg/mL (≈ 11 µM)

**Q.** What about the MIC (Escherichia coli) of the same molecule?
**A.** 6.25 µg/mL (≈ 11 µM)

**Q.** What about the MIC (Staphylococcus aureus [2]) of the same molecule?
**A.** 6.25 µg/mL (≈ 11 µM)

**Q.** And the MIC (Aspergillus flavus)?
**A.** 6.25 µg/mL (≈ 11 µM)

**Q.** What about the MIC (Talaromyces marneffei) of the same molecule?
**A.** 6.25 µg/mL (≈ 11 µM)

**Q.** What about the MIC (Klebsiella pneumoniae) of the same molecule?
**A.** 6.25 µg/mL (≈ 11 µM)

**Q.** And the MIC (Pseudomonas aeruginosa)?
**A.** 6.25 µg/mL (≈ 11 µM)

**Q.** How did the MIC [1] turn out when Cc1c(C(=O)N/N=C/c2ccccc2O)nnn1-c1cc(C(F)(F)F)nc2c(C(F)(F)F)cccc12 was run?
**A.** 6.25 µg/mL (≈ 12.3 µM)

**Q.** And the MIC (Aspergillus fumigatus)?
**A.** 6.25 µg/mL (≈ 12.3 µM)

**Q.** And the MIC (Escherichia coli)?
**A.** 6.25 µg/mL (≈ 12.3 µM)

**Q.** What about the MIC (Staphylococcus aureus [2]) of the same molecule?
**A.** 6.25 µg/mL (≈ 12.3 µM)

**Q.** What about the MIC (Aspergillus flavus) of the same molecule?
**A.** 6.25 µg/mL (≈ 12.3 µM)

**Q.** What about the MIC (Talaromyces marneffei) of the same molecule?
**A.** 6.25 µg/mL (≈ 12.3 µM)

**Q.** And the MIC (Klebsiella pneumoniae)?
**A.** 6.25 µg/mL (≈ 12.3 µM)

**Q.** What about the MIC (Pseudomonas aeruginosa) of the same molecule?
**A.** 6.25 µg/mL (≈ 12.3 µM)

**Q.** How did the MIC [1] turn out when COc1ccc2cc(/C=N/NC(=O)c3nnn(-c4cc(C(F)(F)F)nc5c(C(F)(F)F)cccc45)c3C)ccc2c1 was run?
**A.** 6.25 µg/mL (≈ 10.9 µM)

**Q.** What about the MIC (Aspergillus fumigatus) of the same molecule?
**A.** 6.25 µg/mL (≈ 10.9 µM)

**Q.** What about the MIC (Escherichia coli) of the same molecule?
**A.** 6.25 µg/mL (≈ 10.9 µM)

**Q.** And the MIC (Staphylococcus aureus [2])?
**A.** 6.25 µg/mL (≈ 10.9 µM)

**Q.** What about the MIC (Aspergillus flavus) of the same molecule?
**A.** 6.25 µg/mL (≈ 10.9 µM)

**Q.** What about the MIC (Talaromyces marneffei) of the same molecule?
**A.** 6.25 µg/mL (≈ 10.9 µM)

**Q.** What about the MIC (Klebsiella pneumoniae) of the same molecule?
**A.** 6.25 µg/mL (≈ 10.9 µM)

**Q.** And the MIC (Pseudomonas aeruginosa)?
**A.** 6.25 µg/mL (≈ 10.9 µM)

**Q.** Which results are given for Cc1c(C(=O)N/N=C/c2ccc(O)cc2)nnn1-c1cc(C(F)(F)F)nc2c(C(F)(F)F)cccc12?
**A.** MIC [1]: 6.25 µg/mL (≈ 12.3 µM); MIC (Aspergillus fumigatus): 6.25 µg/mL (≈ 12.3 µM); MIC (Escherichia coli): 6.25 µg/mL (≈ 12.3 µM); MIC (Staphylococcus aureus [2]): 6.25 µg/mL (≈ 12.3 µM); MIC (Aspergillus flavus): 6.25 µg/mL (≈ 12.3 µM); MIC (Talaromyces marneffei): 6.25 µg/mL (≈ 12.3 µM); MIC (Klebsiella pneumoniae): 6.25 µg/mL (≈ 12.3 µM); MIC (Pseudomonas aeruginosa): 6.25 µg/mL (≈ 12.3 µM)

**Q.** For Cc1c(C(=O)N/N=C/c2ccc([N+](=O)[O-])cc2)nnn1-c1cc(C(F)(F)F)nc2c(C(F)(F)F)cccc12, which MIC [1] is on record?
**A.** 6.25 µg/mL (≈ 11.6 µM)

**Q.** What about the MIC (Aspergillus fumigatus) of the same molecule?
**A.** 6.25 µg/mL (≈ 11.6 µM)

**Q.** And the MIC (Escherichia coli)?
**A.** 6.25 µg/mL (≈ 11.6 µM)

**Q.** And the MIC (Staphylococcus aureus [2])?
**A.** 6.25 µg/mL (≈ 11.6 µM)

**Q.** What about the MIC (Aspergillus flavus) of the same molecule?
**A.** 6.25 µg/mL (≈ 11.6 µM)

**Q.** And the MIC (Talaromyces marneffei)?
**A.** 6.25 µg/mL (≈ 11.6 µM)

**Q.** And the MIC (Klebsiella pneumoniae)?
**A.** 6.25 µg/mL (≈ 11.6 µM)

**Q.** What about the MIC (Pseudomonas aeruginosa) of the same molecule?
**A.** 6.25 µg/mL (≈ 11.6 µM)

**Q.** Which results are given for Cc1c(C(=O)N/N=C/c2cccnc2)nnn1-c1cc(C(F)(F)F)nc2c(C(F)(F)F)cccc12?
**A.** MIC [1]: 6.25 µg/mL (≈ 12.7 µM); MIC (Aspergillus fumigatus): 6.25 µg/mL (≈ 12.7 µM); MIC (Escherichia coli): 6.25 µg/mL (≈ 12.7 µM); MIC (Staphylococcus aureus [2]): 6.25 µg/mL (≈ 12.7 µM); MIC (Aspergillus flavus): 6.25 µg/mL (≈ 12.7 µM); MIC (Talaromyces marneffei): 6.25 µg/mL (≈ 12.7 µM); MIC (Klebsiella pneumoniae): 6.25 µg/mL (≈ 12.7 µM); MIC (Pseudomonas aeruginosa): 6.25 µg/mL (≈ 12.7 µM)

**Q.** Which results are given for CC(C)C[C@H](NC(=O)CNC(=O)C(C)(C)NC(=O)[C@@H](NC(=O)C(C)(C)NC(=O)[C@H](CCC(N)=O)NC(=O)[C@H](C)NC(=O)C(C)(C)NC(=O)[C@H](C)NC(=O)C(C)(C)NC(=O)[C@@H]1CCN(C(=O)C(C)(C)n2cc(-c3ccccc3)nn2)C1)C(C)C)C(=O)NC(C)(C)C(=O)N1CCC[C@@H]1C(=O)N[C@H](C(=O)NC(C)(C)C(=O)NC(C)(C)C(=O)N[C@@H](CCC(N)=O)C(=O)N[C@@H](CCC(N)=O)C(=O)N[C@H](CO)Cc1ccccc1)C(C)C?
**A.** IC50 (KB): 2.9 µg/mL (≈ 1.42 µM); MIC (Staphylococcus aureus [3]): 1.56 µg/mL (≈ 0.761 µM); MIC (Bacillus cereus): 1.56 µg/mL (≈ 0.761 µM)

**Q.** CC(C)C[C@H](NC(=O)CNC(=O)C(C)(C)NC(=O)[C@@H](NC(=O)C(C)(C)NC(=O)[C@H](CCC(N)=O)NC(=O)[C@H](C)NC(=O)C(C)(C)NC(=O)[C@H](C)NC(=O)C(C)(C)NC(=O)[C@@H]1CCN(C(=O)C(C)(C)n2cc(-c3cc4ccccc4c4ccccc34)nn2)C1)C(C)C)C(=O)NC(C)(C)C(=O)N1CCC[C@@H]1C(=O)N[C@H](C(=O)NC(C)(C)C(=O)NC(C)(C)C(=O)N[C@@H](CCC(N)=O)C(=O)N[C@@H](CCC(N)=O)C(=O)N[C@H](CO)Cc1ccccc1)C(C)C was tested. Which IC50 (KB) did it give?
**A.** 2.9 µg/mL (≈ 1.35 µM)

**Q.** What about the MIC (Staphylococcus aureus [3]) of the same molecule?
**A.** 1.56 µg/mL (≈ 0.726 µM)

**Q.** And the MIC (Bacillus cereus)?
**A.** 1.56 µg/mL (≈ 0.726 µM)

**Q.** What does the source list for CC(C)C[C@H](NC(=O)CNC(=O)C(C)(C)NC(=O)[C@@H](NC(=O)C(C)(C)NC(=O)[C@H](CCC(N)=O)NC(=O)[C@H](C)NC(=O)C(C)(C)NC(=O)[C@H](C)NC(=O)C(C)(C)NC(=O)[C@@H]1CCN(C(=O)C(C)(C)n2cc(-c3ccc(F)c(F)c3)nn2)C1)C(C)C)C(=O)NC(C)(C)C(=O)N1CCC[C@@H]1C(=O)N[C@H](C(=O)NC(C)(C)C(=O)NC(C)(C)C(=O)N[C@@H](CCC(N)=O)C(=O)N[C@@H](CCC(N)=O)C(=O)N[C@H](CO)Cc1ccccc1)C(C)C?
**A.** IC50 (KB): 2.9 µg/mL (≈ 1.39 µM); MIC (Staphylococcus aureus [3]): 1.56 µg/mL (≈ 0.748 µM); MIC (Bacillus cereus): 1.56 µg/mL (≈ 0.748 µM)

**Q.** For COc1ccc(/C=N/NC(=O)c2nnn(-c3cc(C(F)(F)F)nc4c(C(F)(F)F)cccc34)c2C)cc1, which MIC [1] is on record?
**A.** 6.25 µg/mL (≈ 12 µM)

**Q.** What about the MIC (Aspergillus fumigatus) of the same molecule?
**A.** 6.25 µg/mL (≈ 12 µM)

**Q.** What about the MIC (Escherichia coli) of the same molecule?
**A.** 6.25 µg/mL (≈ 12 µM)

**Q.** What about the MIC (Staphylococcus aureus [2]) of the same molecule?
**A.** 6.25 µg/mL (≈ 12 µM)

**Q.** And the MIC (Aspergillus flavus)?
**A.** 6.25 µg/mL (≈ 12 µM)

**Q.** And the MIC (Talaromyces marneffei)?
**A.** 6.25 µg/mL (≈ 12 µM)

**Q.** What about the MIC (Klebsiella pneumoniae) of the same molecule?
**A.** 6.25 µg/mL (≈ 12 µM)

**Q.** What about the MIC (Pseudomonas aeruginosa) of the same molecule?
**A.** 6.25 µg/mL (≈ 12 µM)
